System: Stress protein genes
Assay: DNA chip mRNA expression in yeast, stress protein genes (Table 6)
Type: cell-based, Saccharomyces cerevisiae S288C
Method in brief: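 Values are treated/untreated fluorescence ratios from a whole-genome yeast DNA chip hybridized over 12 hours at 65° C with Cy3- or Cy5-labelled cDNA from poly(A) mRNA. Log-phase S288C yeast in YPD at 25° C had received a single toxic chemical for two hours, dosed to slow growth without killing.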

Measured: The level of expressed mRNA in the presence of chemical substance/The level of expressed mRNA in the absence of chemical substance

manganese ethylenebis(dithiocarbamate) [(8)]
0.7: yeast gene YEL030W | yeast gene YER125W | yeast gene YFL016C | yeast gene YFL020C | yeast gene YIL011W
0.4: yeast gene YHL028W
1.7: yeast gene YER042W
1.0: yeast gene YDR033W | yeast gene YER057C | yeast gene YGL115W | yeast gene YHL046C | yeast gene YHR057C
0.8: yeast gene YBL075C | yeast gene YCR021C | yeast gene YDL022W | yeast gene YDR077W | yeast gene YGL073W | yeast gene YGR088W
1.4: yeast gene YCL035C | yeast gene YDR155C | yeast gene YDR519W
1.2: yeast gene YCR060W | yeast gene YDR098C | yeast gene YGL181W
1.5: yeast gene YCR083W | yeast gene YFR052W | yeast gene YHR030C
3.4: yeast gene YFL014W
0.6: yeast gene YBR126C | yeast gene YDR293C
0.9: yeast gene YAL005C | yeast gene YBR169C | yeast gene YDR436W | yeast gene YER103W
1.1: yeast gene YAL015C | yeast gene YBR044C | yeast gene YBR067C | yeast gene YDL025C | yeast gene YEL039C | yeast gene YHR104W
2.1: yeast gene YBR054W | yeast gene YBR072W
1.6: yeast gene YBL093C | yeast gene YDR513W
1.9: yeast gene YDR258C

Reference: patent publication US8192962B2, “Processes for detecting toxic substances” (Daikin Industries, Ltd., priority 2001, dated 2012)
